ChEMBL document CHEMBL4431305, “Chermesins A-D: Meroterpenoids with a Drimane-Type Spirosesquiterpene Skeleton from the Marine Algal-Derived Endophytic Fungus Penicillium chermesinum EN-480” (J Nat Prod, 2016)
≈ marks a conversion by molar mass, not a printed value. Calls of active or inactive are those of the source. The rule behind the calls is not given here.

What was measured:
[1] = test system: Candida albicans; test: Antimicrobial activity against Candida albicans by microplate assay; type: functional
[2] = test system: Escherichia coli; test: Antimicrobial activity against Escherichia coli by microplate assay; type: functional
[3] = test system: Micrococcus luteus; test: Antimicrobial activity against Micrococcus luteus by microplate assay; type: functional
[4] = test system: Vibrio alginolyticus; test: Antimicrobial activity against Vibrio alginolyticus by microplate assay; type: functional
[5] = Toxicity in Artemia salina assessed as lethality at 100 ug/ml measured after 6 to 24 hrs; type: organism-based; settings: in vivo

SMILES	MIC [1]	MIC [2]	MIC [3]	MIC [4]	mortality at 100 ug/ml [5]
CC1=CC(=O)C(C)=C2O[C@@]3(C[C@]12C)[C@@H](C)CC[C@H]1C(C)(C)[C@@H](O)CC[C@@]13C	32 µg/mL (≈ 85.9 µM)	32 µg/mL (≈ 85.9 µM)	8 µg/mL (≈ 21.5 µM)	32 µg/mL (≈ 85.9 µM)	< 60%
C[C@@H]1[C@H](O)[C@@H](C)/C=C/C=C/C=C/C=C/C=C/C=C/C=C/[C@H](O[C@@H]2O[C@H](C)[C@@H](O)[C@H](N)[C@@H]2O)C[C@@H]2O[C@](O)(C[C@@H](O)C[C@@H](O)[C@H](O)CC[C@@H](O)C[C@@H](O)CC(=O)O[C@H]1C)C[C@H](O)[C@H]2C(=O)O [AMPHOTERICIN B]	2 µg/mL (≈ 2.16 µM)				
COC(=O)[C@@H]1C(=O)C(C)=C2O[C@@]3(C[C@]2(C)[C@H]1C)[C@@H](C)[C@@H](O)C[C@H]1C(C)(C)[C@@H](O)CC[C@@]13C	inactive	inactive	inactive	inactive	< 60%
O=C(N[C@H](CO)[C@H](O)c1ccc([N+](=O)[O-])cc1)C(Cl)Cl [CHLORAMPHENICOL]		2 µg/mL (≈ 6.19 µM)	2 µg/mL (≈ 6.19 µM)	4 µg/mL (≈ 12.4 µM)	
CC1=CC(=O)C(C)=C2O[C@@]3(C[C@]12C)[C@@H](C)CC[C@H]1C(C)(C)C(=O)CC[C@@]13C	64 µg/mL (≈ 173 µM)	64 µg/mL (≈ 173 µM)	8 µg/mL (≈ 21.6 µM)	64 µg/mL (≈ 173 µM)	< 60%
CC1=C2O[C@@]3(C[C@]2(C)C(C)=C(C(=O)O)C1=O)[C@@H](C)CC[C@H]1C(C)(C)C(=O)CC[C@@]13C	inactive	64 µg/mL (≈ 154 µM)	inactive	inactive	< 60%
